The values below come from US20150174059A1, “ORAL CARE” (University of Pretoria, priority 2012, published 2015).

As a reminder, the IC50 is the concentration needed to halve the response being measured.

Data set [1] concerns Actinomyces israelii (ATCC 10049). Nature of the data set: Microdilution MIC/MBC against Actinomyces israelii. In kind it is cell-based. The conditions noted are these: for MIC / MBC: ATCC10049. Here is the method: (§1) The microorganisms used in this study included Actinomyces israelii (ATCC 10049), Prevotella intermedia (ATCC 25611), Streptococcus mutans (ATCC 25175), Candia albicans (ATCC 10231) and a strain of Candida albicans resistant to polyenes and azoles (1051604). The bacteria were grown on Casein-peptone Soymeal-peptone Agar medium (CASO) (Merck Chemicals (Pty) Ltd Wadeville, South Africa) under anaerobic conditions in an anaerobic jar with Anaerocult® A (Merck KGaA Darmstadt, Germany), at 37° C. for 72 hours. Actinomyces israelii and S. mutans had CASO agar enriched with 1% sucrose (Merck Chemicals (Pty) Ltd Wadeville, South Africa). The drug susceptible and drug resistant strains of C. albicans were grown on Sabouraud Dextrose 4% Agar (SDA) (Merck Chemicals (Pty) Ltd Wadeville, South Africa), at 37° C. for 72 hours. Sub-culturing was done every second week. Inocula were prepared by suspending bacterial test organisms in their respective broths until turbidity was compatible with McFarland Standard 1 (Merck Chemicals (Pty) Ltd Wadeville, South Africa). Yeast test organisms were suspended in sterile distilled water until turbidity was compatible with McFarland Standard 1 (McFarland, 1907).
(§2) The microdilution technique using 96-well micro-plates, as described by Eloff (1998) was used to obtain the MIC and MBC values of the crude extracts against the microorganisms under study. The extracts, dissolved in 10% dimethyl sulphoxide (DMSO) (Merck Chemicals (Pty) Ltd), were serially diluted in broth (enriched for A. israelii and S. mutans) for the bacteria and sterile water for the Candida species; in the 96-well plate adding 48 hour old microorganisms grown at 37° C. The final concentration of extracts ranged from 12.5-0.10 mg/ml and the positive control, 5% chlorhexidine gluconate (CHX) (Dental Warehouse, Sandton, South Africa), ranged from 12.5-3.8×10^−4 mg/ml. Amphotericin B (Davis Diagnostics, Gauteng) an established antifungal drug, ranging from 0.2 mg/ml to 1.5×10^−3 mg/ml, was included for the Candida assays. […] Actinomyces israelii and S. mutans were incubated at 37° C., under anaerobic conditions, for 24 hours; P. intermedia was incubated at 37° C., under anaerobic conditions, for 48 hours; and C. albicans was incubated at 37° C. with p-iodonitrotetrazolium violet (INT) (Sigma-Aldrich, South Africa) already added, under moist aerobic conditions, for 24 hours.
To indicate bacterial growth, 50 μl of (0.2 mg/ml) INT, was added to micro-plate wells and incubated at 37° C., under anaerobic conditions, for 20-60 minutes until a red colour developed. The MIC was defined as the lowest concentration that inhibited the colour change of INT. […] These suspensions were reincubated at 37° C. for 28 hours (48 hours for P. intermedia), under anaerobic conditions. The MBC was determined as the lowest concentration of extract which inhibited 100% growth of microorganisms (Cohen et al., 1998).

A further data set deals with HEp-2 cells. Put plainly: Cytotoxicity, XTT method, HEp-2 cells. The format is cell-based. The conditions noted are these: for CC50: Homo sapiens, 72 h, read-out: 50% inhibition of cell growth IC50 + S.D. Here is the method:
(§3) Microtitre plates with Vero and HEp-2 cells (Highveld Biological, Gauteng) were used for testing the four best ethanol extracts for cytotoxicity following the method of Basson (2005). Cytotoxicity was measured by the XTT (Sodium 3′-[1-(phenyl amino-carbonyl)-3,4-tetrazolim]-bis-[4 methoxy-6-nitro]benzene sulfonic acid hydrate) method using the cell proliferation kit II (Roche Diagnostics GmbH). A hundred microliters of Vero and HEp-2 cells (1×10^5 ml) were seeded onto micro-plates and incubated for 24 hrs to allow the cells to attach to the bottom of the plate. Dilution series were made of the extracts and the various concentrations (400-3.1 μg/ml) were added to the micro-plate and incubated for 72 hours. The XTT reagents were added to a final concentration of 0.3 mg/ml and the cells were incubated for one to two hours. The positive drug controls Doxorubicin HCl (Sigma-Aldrich, South Africa) and Actinomycin D (Sigma-Aldrich, South Africa), at concentration ranges of 0.78-0.01 μg/ml, were included in the assay. After incubation the absorbance of the colour was spectrophotometrically quantified using an enzyme-linked immunosorbent assay (ELISA) plate reader (BIO-TEK Power-Wave XS, Weltevreden Park, South Africa), which measured the optical density at 490 nm with a reference wavelength of 690 nm. The assay was carried out in triplicate.
A general note: Tetrazolium dyes change colour on reduction, which living cells bring about.

For data set [2], the system named is Candida albicans (ATCC 10231). Nature of the data set: Microdilution MIC/MBC against Candida albicans. In kind it is cell-based. Here is the method:
as §1
The microdilution technique using 96-well micro-plates, as described by Eloff (1998) was used to obtain the MIC and MBC values of the crude extracts against the microorganisms under study. The extracts, dissolved in 10% dimethyl sulphoxide (DMSO) (Merck Chemicals (Pty) Ltd), were serially diluted in broth (enriched for A. israelii and S. mutans) for the bacteria and sterile water for the Candida species; in the 96-well plate adding 48 hour old microorganisms grown at 37° C. The final concentration of extracts ranged from 12.5-0.10 mg/ml and the positive control, 5% chlorhexidine gluconate (CHX) (Dental Warehouse, Sandton, South Africa), ranged from 12.5-3.8×10^−4 mg/ml. Amphotericin B (Davis Diagnostics, Gauteng) an established antifungal drug, ranging from 0.2 mg/ml to 1.5×10^−3 mg/ml, was included for the Candida assays. […]
(In general: Broth dilution looks for growth in wells or tubes with falling amounts of substance.)

The test system of data set [3] is Candida albicans resistant to polyenes and azoles (1051604). Put plainly: Microdilution MIC/MBC against polyene and azole resistant C. albicans. In kind it is cell-based. The conditions noted are these: Yeast. On the procedure:
as §1, §2
To indicate bacterial growth, 50 μl of (0.2 mg/ml) INT, was added to micro-plate wells and incubated at 37° C., under anaerobic conditions, for 20-60 minutes until a red colour developed. The MIC was defined as the lowest concentration that inhibited the colour change of INT. […] These suspensions were reincubated at 37° C. for 28 hours (48 hours for P. intermedia), under anaerobic conditions. […]

Another data set concerns Cladosprium cucumerinum. Particulars: Aurentiacin A isolated from Myrica serrate; cited from earlier work.
The test system of a further data set is Bacillus subtilis. Particulars: Aurentiacin A isolated from Myrica serrate; cited from earlier work.
The test system of the next data set is E. coli. The conditions noted are these: Aurentiacin A isolated from Myrica serrate; cited from earlier work.
The subject of data set [4] is Streptococcus mutans (ATCC 25175). Nature of the data set: Microdilution MIC/MBC against Streptococcus mutans. In kind it is cell-based. The conditions noted are these: ATCC25175, Gram +ve. On the procedure: as §1
(§4) The microdilution technique using 96-well micro-plates, as described by Eloff (1998) was used to obtain the MIC and MBC values of the crude extracts against the microorganisms under study. […]

The subject of data set [5] is Prevotella intermedia (ATCC 25611). Put plainly: Microdilution MIC/MBC against Prevotella intermedia. Particulars: ATCC25611, Gram -ve. In kind it is cell-based. Here is the method: as §1, §4
Another data set can be described thus: in vitro. In kind it is cell-based. Particulars: African green monkey. On the procedure:
as §3

A short description of another data set: DPPH antioxidant assay. In kind it is biochemical. The conditions noted are these: single component. On the procedure: DPPH (2,2-diphenyl-1-picrylhydrazyl hydrate) is a stable free radical with an unpaired valence electron at a nitrogen atom forming a bridge. The free radical can initiate a chain reaction which causes the removal of an electron from another molecule to complete its own orbital. This free valence electron forms the basis of the DPPH assay as samples are tested to determine the scavenging capability of this DPPH radical.
A modified antioxidant assay was used (du Toit et al., 2001). A 2% stock solution of M. piperita and M. alternifolia, a 2 mg/ml stock solution of ascorbic acid (vitamin C) (Sigma-Aldrich (Pty) Ltd, Aston Manor, South Africa) and H. natalensis, a 1 mg/ml stock solution of Quercetin, a 500 μg/ml stock solution of TEAVIGO™ and a synergistic compilation of H. natalensis (3.125 mg/ml), M. alternifolia (0.05% v/v), M. piperita (0.05% v/v) and TEAVIGO™ (2.5 mg/ml) were prepared.
In a 96 well ELISA plate, 20 μl of each sample was added to 200 μl dH2O (except for Quercetin which was added to 200 μl EtOH), serial dilutions were done. After which […] DPPH (Sigma-Aldrich (Pty) Ltd, Aston Manor, South Africa) dissolved in ethanol (40 μg/ml) were added to all wells. All samples were prepared in triplicate. […] The absorbance was measured in an ELISA plate reader at 515 nm (du Toit et al., 2001). […]

The mark [6] stands for this setting: against Actinomyces israelii, read-out: MIC of the isolated compounds.
Where [7] appears, read: against Actinomyces israelii, NA = Not active, read-out: MBC of the isolated compounds.

Counter-ions that a name gives are not always drawn. Like-named read-outs stand apart in the source and are kept apart here. Marks after values point to notes of the source that are not given here. Numbered stars: 1 amine (or outer) side, 2 acyl side, 3 side chain; on linkers, the order of the positions; unused ones are H or OH. Bridge positions count the residues as written; N and C are the ends. Square brackets hold non-standard residues; d marks the D form. Peptide text beside a SMILES is read from it. I, II: the chains in the order shown. Actinocin(9to1) = Cc1c2oc3c(C)ccc(C(=O)[*:1])c3nc-2c(C(=O)[*:2])c(N)c1=O; NMeV = CN[C@H](C(=O)O)C(C)C; Sar = CNCC(=O)O

In the case of `Oc1cc(O)c2c(c1)OC(c1ccccc1)C(O)C2` (stereo not drawn) [3,5,7-trihydroxyflavan (5), 3,5,7-Trihydroxyflavan], in data set [1] (setting [6]), the MIC is more than 1000 µg/mL. Besides, the “MIC of the isolated compounds” value in data set [1] (against Actinomyces israelii) is more than 1000 µg/mL. Also, in the data set with HEp-2 cells, the CC50 was more than 200 µg/mL.
Take `Cc1c2oc3c(C)ccc(C(=O)N[C@@H]4C(=O)N[C@H](C(C)C)C(=O)N5CCC[C@H]5C(=O)N(C)CC(=O)N(C)[C@@H](C(C)C)C(=O)O[C@@H]4C)c3nc-2c(C(=O)N[C@@H]2C(=O)N[C@H](C(C)C)C(=O)N3CCC[C@H]3C(=O)N(C)CC(=O)N(C)[C@@H](C(C)C)C(=O)O[C@@H]2C)c(N)c1=O` [Actinomycin D] (I: T[dV]P[Sar][NMeV] / II: T[dV]P[Sar][NMeV]; ester I:1-I:C, II:1-II:C; linker I:N-II:N via Actinocin(9to1)): the “50% inhibition of cell growth IC50 + S.D.” value in the data set on HEp-2 cells was 9.6 × 10^−3 ± 0.0003^c μg/ml. Besides, in the data set with HEp-2 cells (XTT, 72 hours), the “Cytotoxicity IC50, HEp-2” value is 0.0085 µg/mL.
Take `C[C@@H]1[C@H](O)[C@@H](C)/C=C/C=C/C=C/C=C/C=C/C=C/C=C/[C@H](O[C@@H]2O[C@H](C)[C@@H](O)[C@H](N)[C@@H]2O)C[C@@H]2O[C@](O)(C[C@@H](O)C[C@@H](O)[C@H](O)CC[C@@H](O)C[C@@H](O)CC(=O)O[C@H]1C)C[C@H](O)[C@H]2C(=O)O` [Amphotericin B]: the “MIC, C.a” value in data set [2] (Yeast) is on record as >0.2^c mg/ml. In addition, in [3], the “MBC, C.a (res)” value is given as 0.013^c mg/ml and the “MIC, C.a (res)” value is 0.013^c mg/ml.
As to `COc1c(C)c(O)cc(O)c1C(=O)/C=C/c1ccccc1` [Aurentiacin A (1), 2′-Me ether derivative of 2′,4′,6′-trihydroxy-3′-methylchalcone], the MBC in [1] (setting [7]) came to 62.5 µg/mL. The MIC in [1] (setting [6]) came out at 62.5 µg/mL. The CC50 in the data set on HEp-2 cells was determined as 6.36 ± 5.09 µg/mL. In addition, the growth inhibition result in the data set with Cladosprium cucumerinum, in the data set on Bacillus subtilis and in the data set with E. coli was “inhibits the growth” each time.
With `[H]/N=C(\N/C(=N/[H])NCCCCCCNC(=N)NC(=N)Nc1ccc(Cl)cc1)Nc1ccc(Cl)cc1` [Chlorhexidine, chlorhexidine gluconate], the MBC in data set [1] (Gram +ve, Actinomyces israelii, read-out: MBC, A.i) was 39 µg/mL; in data set [1] (setting [7]) it was 24 µg/mL; in data set [1] (Actinomyces israelii, fractions of the ethanolic extract, against A. israelii, Na = Not active, read-out: Average minimum bactericidal concentration (MBC) of the fractions), 48.8 µg/mL; in data set [4], 415 µg/mL; in data set [5] it was 1040 µg/mL; in [2] (ATCC10231, Yeast), 293 µg/mL. This compound came in with an MBC in [3] (Candida albicans) of 293 µg/mL. Further, the MIC was 33 µg/mL in data set [1] (Gram +ve, Actinomyces israelii, read-out: MIC, A.i); 24 µg/mL in [1] (setting [6]); 18.3 µg/mL in data set [1] (Actinomyces israelii, fractions of the ethanolic extract, against A. israelii, read-out: Average minimum inhibitory concentration (MIC) of the fractions); 61 µg/mL in data set [4]; 260 µg/mL in data set [5]; 352 µg/mL in data set [2] (ATCC10231, Yeast). In [3] (Candida albicans), this compound came in with an MIC of 260 µg/mL.
In “in vitro”, `COc1cccc2c1C(=O)c1c(O)c3c(c(O)c1C2=O)C[C@@](O)(C(=O)CO)C[C@@H]3O[C@H]1C[C@H](N)[C@H](O)[C@H](C)O1` [Doxorubicin, Doxorubicin HCl] had a half-inhibitory concentration (IC50) at 72 h of 0.06 µg/mL.
On to `O=c1c(O)c(-c2ccc(O)c(O)c2)oc2cc(O)cc(O)c12` [Quercetin (4), 3,3′,4′,5,7-pentahydroxyflavone], for which the MBC in [1] (setting [7]) was 1000 µg/mL. Further, the MIC in data set [1] (setting [6]) was found to be 1000 µg/mL. For the same compound, the CC50 in the data set on HEp-2 cells stood at 187 ± 42.6 µg/mL. The “IC50 ± SD, 50% of DPPH that is inhibited” value in the data set “DPPH antioxidant assay” was determined as 0.415 ± 0.01095 µg/mL.
In the case of `O=C1O[C@H]([C@@H](O)CO)C(O)=C1O` [Vitamin C, ascorbic acid], in “DPPH antioxidant assay”, the “IC50 ± SD, 50% of DPPH that is inhibited” value is 1.98 ± 0.006 µg/mL.
Turning to Cardamomin [Cardamomin (2)], in data set [1] (against Actinomyces israelii), the “MIC of the isolated compounds” value was more than 1000 µg/mL. The “50% inhibition of cell growth IC50 + S.D.” value in the data set on HEp-2 cells stood at 52.12 ± 9.41 µg/mL.
